According to patent US6069146A, “Halimide, a cytotoxic marine natural product, and derivatives thereof” (The Regents of the University of California, priority 1998, dated 2000):
Read-outs that look alike come from different tables or passages of the source.

Tests used:
Bcl-2 = Bcl-2 phosphorylation; format: cell-based
[1] = tested on: multi-drug resistant human colon carcinoma cells; experiment: Cross-resistance, multi-drug resistant colon carcinoma cells; format: cell-based
[2] = tested on: human colon carcinoma cell line HCT116; experiment: MTS cytotoxicity assay, HCT116; format: cell-based; conditions: HCT-116, HCT116, 72 hours, read-out: IC50, inhibition of cell proliferation
Description: (§1) The cytotoxicity of halimide was assessed in vitro against the human colon carcinoma cell line HCT116 and the human ovarian carcinoma cell line A2780 by MTS assay (Ribs et al., Mol. Biol. Cell 3:184a (1992), which is incorporated herein by reference). Cells were plated at 4,000 cells/well in 96 well microliter plates and, after 24 hours, halimide (dissolved in DMSO) was added and serially diluted. The cells were incubated with the compound at 37° C. for 72 hours, then the tetrazolium dye MTS was added to a final concentration of 333 μg/ml and the electron coupling agent phenazine methosulfate was added to a final concentration of 25 μM. A dehydrogenase enzyme in live cells reduces the MTS to a form that absorbs light at […], which can be quantitated spectrophotometrically.
(§2) Assay results are expressed as an IC50, which is the drug concentration required to inhibit cell proliferation by 50% compared to growth of untreated control cells.

[3] = tested on: P388 mouse leukemia cells; experiment: In vivo P388 murine leukemia model, survival
Description: The efficacy of halimide was determined in vivo in a mouse P388 model. 1×10^6 P388 mouse leukemia cells were implanted in the intraperitoneal cavity of BALB/cX DBA/2 F1 (CDF1) or C57/BL6XDBA/2 F1 (BDF1) mice (Rose et al., Cancer Res. 43:1504-1510 (1983), which is incorporated herein by reference). Halimide was dissolved in ethanol and diluted with water to a concentration of 2.7 mg/ml. Halimide was injected intraperitoneally or intravenously beginning on the first day after tumor implantation and every day thereafter for five treatments. Increases in life span were reflected by the median survival time of treated (T) versus control (C) groups; T/C was calculated. For the P388 tumor model, a T/C […] 125% is considered to be a significant increase in survival. An optimal dose of 27 mg/kg/injection, ip, produced a T/C of 153%.

carcinoma cells = experiment: Cell cycle arrest of carcinoma cells; format: cell-based; conditions: 5 μM halimide
Text: As used herein, the term "premitotic stage," when used in reference to cells, means that the cells have not attained the anaphase stage of mitosis and, therefore, have not yet begun to divide. […] Thus, the invention provides a method of reducing or inhibiting the ability of the cells to proceed through mitosis and, therefore, proliferate, by contacting the cells with a compound of the invention.

[4] = tested on: dividing cells (mitotic spindle); experiment: Mitotic spindle / cell division in dividing cells; format: cell-based; conditions: exposure of dividing cells
Text: (§3) Since cancer cells generally divide more rapidly than their normal cell counterpart, cancer cells generally are more susceptible than the normal cells to mitotic inhibitors such as halimide.

tubulin = experiment: Binding to tubulin; conditions: each molecule of halimide to one tubulin molecule
Text: as §3

[5] = tested on: paclitaxel-resistant A2780 cell line with altered tubulin; experiment: Collateral sensitivity, paclitaxel-resistant A2780; format: cell-based, human
[6] = tested on: 2X cycled bovine brain tubulin; experiment: Inhibition of tubulin polymerization (2X cycled bovine brain tubulin, GTP); format: biochemical
Text: Thus, the compounds of the invention have an activity similar to vinca alkaloids, but are chemically distinct from the vinca alkaloids.

[7] = tested on: human ovarian carcinoma cell line A2780; experiment: MTS cytotoxicity assay, A2780; format: cell-based; conditions: read-out: IC50, inhibition of cell proliferation
Description: as §1, §2

In the case of `C=CC(C)(C)c1nc[nH]c1/C=C1\NC(=O)C(Cc2ccccc2)NC1=O` (stereo not shown) [halimide], the “Bcl-2 hyperphosphorylation (in words)” value (Bcl-2) is reported as “can hyperphosphorylate Bcl-2”, the “resistance of multi-drug resistant cells (in words)” value [1] is reported as “not resistant” and the IC50 [2] is reported as 1000 nM. The “survival of leukemia bearing mice (in words)” value ([3]; P388 model) was “significantly prolongs the survival of leukemia bearing mice”, the “increase in life span” value ([3]; intraperitoneal injected P388 murine leukemia model) was 53% and the optimal dose ([3]; ip, P388 model) was 27 mg/kg/injection. For the same compound, the “T/C (median survival time of treated versus control)” value ([3]; optimal dose 27 mg/kg/injection, ip, daily for five treatments from first day after implantation) was 153%, the “cell cycle arrest (in words)” value (carcinoma cells) was “arrested the cells at or near the G2/M boundary of the cell cycle” and the “block of the cell in a premitotic stage (in words)” value [4] was “blocked the cell in a premitotic stage within a few minutes; the cells did not divide”. The “effect on mitotic spindle (in words)” value [4] was “disappearance of the mitotic spindle”, the “binding to tubulin (in words)” value (tubulin) was “bound tightly to one tubulin molecule” and the “collateral sensitivity (in words)” value [5] was “collaterally sensitive”. The “inhibition of tubulin polymerization (in words)” value [6] was “inhibited tubulin polymerization”, the “inhibition of tubulin polymerization” value ([6]; 20 μM halimide, in the presence of GTP) was 55% and the IC50 ([7]; A2780, 72 hours) was 820 nM. For the same compound, the IC50 ([7]; Homo sapiens, A2780, 72 h) was 800 nM.
